Measured values reported in patent US5834472A (Schering Corporation, priority 1997, dated 1998).

Columns and labels:
Cryptococcus = details: aqueous suspensions; cited from earlier work
Candida = details: aqueous suspensions; cited from earlier work
Aspergillis = details: aqueous suspensions; cited from earlier work
water solubility = type: physicochemical

CCC(C(C)O)n1ncn(-c2ccc(N3CCN(c4ccc(OCC5COC(Cn6cncn6)(c6ccc(F)cc6F)C5)cc4)CC3)cc2)c1=O (single isomer, unassigned; (-)) [antifungal compound]
antifungal activity against Cryptococcus (Cryptococcus): potent antifungal activity | antifungal activity against Candida (Candida): potent antifungal activity | antifungal activity against Aspergillis (Aspergillis): potent antifungal activity | water solubility (water solubility): extremely low water solubility
